Assay results: ChEMBL document CHEMBL5608208, “Design, synthesis of griseofamine A derivatives and development of potent antibacterial agents against MRSA” (Eur J Med Chem, 2024)
≈ marks a conversion by molar mass, not a printed value. Calls of active or inactive are those of the source. The calls are words filed in the database; no cut-off is given here.

Key:
[1] = system: Staphylococcus aureus; experiment: Antibacterial activity against Staphylococcus aureus ATCC 29213 incubated for 18 hrs by serial two-fold dilution method; format: functional
[2] = system: Staphylococcus aureus; experiment: Potency index, ratio of griseofamine A MIC to test compound MIC for antibacterial activity against methicillin resistant Staphylococcus aureus ATCC 43300; format: functional
[3] = system: Staphylococcus aureus; experiment: Bactericidal activity against methicillin resistant Staphylococcus aureus ATCC 33592 incubated for 18 to 24 hrs; format: functional; details: time 18-24 hrs
[4] = system: Enterococcus faecium; experiment: Antibacterial activity against Enterococcus faecium ATCC 700221 incubated for 18 hrs by serial two-fold dilution method; format: functional
[5] = system: Bacillus subtilis; experiment: Antibacterial activity against Bacillus subtilis CMCC 63501 incubated for 18 hrs by serial two-fold dilution method; format: functional
[6] = system: Staphylococcus aureus; experiment: Drug resistance development in Staphylococcus aureus ATCC 29213 assessed as increase in MIC value measured after 8 passages by broth microdilution method; format: functional
[7] = system: Staphylococcus aureus; experiment: Drug resistance development in methicillin resistant Staphylococcus aureus […] assessed as increase in MIC value measured after 8 passages by broth microdilution method; format: functional
[8] = MRT(0 to infinity) in ICR mouse at 5 mg/kg, po; format: ADME, organism-based; details: in vivo
[9] = AUC(0 to t) in ICR mouse at 1 mg/kg, iv; format: ADME, organism-based; details: in vivo
[10] = AUC(0 to infinity) in ICR mouse at 1 mg/kg, iv; format: ADME, organism-based; details: in vivo
[11] = Half-life in ICR mouse at 1 mg/kg, iv; format: ADME, organism-based; details: in vivo
[12] = Tmax in ICR mouse at 1 mg/kg, iv; format: ADME, organism-based; details: in vivo
[13] = Cmax in ICR mouse at 1 mg/kg, iv; format: ADME, organism-based; details: in vivo
[14] = Volume of distribution in ICR mouse at 1 mg/kg, iv; format: ADME, organism-based; details: in vivo
[15] = Clearance in ICR mouse at 1 mg/kg, iv; format: ADME, organism-based; details: in vivo
[16] = system: Staphylococcus aureus; experiment: Antibacterial activity against methicillin resistant Staphylococcus aureus ATCC 43300 infected in ip dosed ICR mouse systemic infection model pretreated with bacteria for 30 mins followed by compound addition and measured for 7 days; format: functional, organism-based; details: dose 1.25-5 mg/kg, time 7.0 day
[17] = system: Staphylococcus aureus; experiment: Antibacterial activity against methicillin resistant Staphylococcus aureus ATCC 43300 infected in ICR mouse systemic infection model at 2.5 mg/kg, ip pretreated with bacteria for 30 mins followed by compound addition and measured for 7 days; format: functional; details: time 7 day
[18] = system: Staphylococcus aureus; experiment: Antibacterial activity against methicillin resistant Staphylococcus aureus ATCC 43300 infected in ICR mouse systemic infection model assessed as reduction in bacterial burden in heart at 2.5 mg/kg, ip pretreated with bacteria for 30 mins followed by compound addition and measured for 7 days; format: functional, organism-based; details: time 7.0 day
[19] = Acute toxicity in ICR mouse assessed as change in body weight at 2 g/kg, po measured after 7 days; format: organism-based; details: in vivo, 2000 mg/kg, 168 h, time 7 day
[20] = Acute toxicity in ICR mouse assessed as change in food intake at 2 g/kg, po measured after 7 days; format: organism-based; details: in vivo, 2000 mg/kg, 168 h, time 7 day

Q: With `C/C(O)=C1\C(=O)[C@@H]2Cc3c([nH]c4ccccc34)[C@@H](c3ccc(-c4cc(F)cc(F)c4)cc3)N2C1=O` as the molecule, how does the MIC [1] read?
A: The MIC was 0.031 µg/mL (≈ 0.0659 µM).

Q: And the Ratio [2]?
A: The Ratio was 128.

Q: What about the MBC [3] of the same molecule?
A: The MBC was 0.5 µg/mL (≈ 1.06 µM).

Q: And the MIC [4]?
A: The MIC was 0.45 µg/mL (≈ 0.956 µM).

Q: And the MIC [5]?
A: Its MIC is 0.14 µg/mL (≈ 0.298 µM).

Q: And the MIC [6]?
A: Its MIC is 2 µg/mL.

Q: And the MIC [7]?
A: Its MIC is 2 µg/mL.

Q: And the MRT inf [8]?
A: Its MRT inf is 12.7 h.

Q: And the AUC(0-t) [9]?
A: Its AUC(0-t) is 4240 ng·h/mL.

Q: And the AUC(0-inf) [10]?
A: Its AUC(0-inf) is 4290 ng·h/mL.

Q: And the half-life [11]?
A: The half-life was 7.59 h.

Q: What about the Tmax [12] of the same molecule?
A: The Tmax was 1.8 min.

Q: What about the Cmax [13] of the same molecule?
A: Its Cmax is 748 ng/mL.

Q: And the Vd [14]?
A: Its Vd is 2.55 L/kg.

Q: What about the clearance [15] of the same molecule?
A: Its clearance is 3.88 mL/min/kg.

Q: What about the Activity [16] of the same molecule?
A: The Activity was “Dose-Dependent Effect”.

Q: And the Activity [17]?
A: Its Activity is 75%.

Q: What about the Activity [18] of the same molecule?
A: The Activity was “Active”.

Q: What about the Activity [19] of the same molecule?
A: Its Activity is “Non-Toxic”.

Q: And the Activity [20]?
A: The Activity was “Non-Toxic”.
